In US20260069584A1, “METHODS OF TREATING CHRONIC MYELOID LEUKEMIA USING THE TYROSINE KINASE INHIBITOR VODOBATINIB” (Sun Pharma Advanced Research Company Ltd., priority 2022, published 2026):

Legend:
[1] = SAD study in healthy male volunteers: safety and tolerability; type: in vivo, human; conditions: single-dose 6 mg, 12 mg and 24 mg
Experimental: Initially in the single ascending dose (SAD) study the safety, tolerability, and pharmacokinetics of the compound of Formula I at 6 mg, 12 mg, and 24 mg doses in healthy human male volunteers were evaluated. In this study, the healthy male volunteers within the mean age group of 28.7-35 years were orally administered an investigational medicinal product (IMP) or a placebo after an overnight fast (of at least 8 hours). The IMP used in this study was a hard gelatin capsule comprising the compound of Formula I of varying sizes containing either 6 mg or 24 mg of the compound of Formula I and the excipients. For the 12 mg dose, two capsules of 6 mg were used. The placebo formulation containing the excipients matched the compound of Formula I capsules in shape, size, and color. […] The median time of maximum concentration (Tmax: 2.5-3 hours, across dose range) was independent of the dose level. Dose-related increases in exposure (AUC and Cmax) were observed. […] The inter-subject variability, for the PK parameters, was generally higher in the 12 mg dose group when compared with that in the 6 mg and 24 mg dose groups (Table 07, and FIG. 1)
There were no clinically significant changes in laboratory parameters, and no clinically significant changes in vital signs or electrocardiogram were recorded for any subject.

[2] = system: Ph+ CML (CP CML, AP CML, and BP CML); assay: Phase 2 open-label study (Part C) in CML resistant or intolerant to ≥3 prior TKIs including ponatinib: disease response; type: in vivo, human
Experimental: A multicenter open-label study in subjects with CML (CP CML, AP CML, and BP CML) who documented resistance or intolerance to more than or equal to 3 prior TKIs one of which included ponatinib was performed. The subjects for this were grouped as follows: • a) Cohort A—Ph+ CML: Chronic phase (CP CML) cohort • b) Cohort B—Ph+ CML: Accelerated phase (AP) cohort • c) Cohort C—Ph+ CML: Blast phase (BP) cohort.
The primary objective of this study was to evaluate the efficacy of the compound of Formula I in CP CML patients by cytogenetic outcomes and in AP CML and BP CML patients by hematologic outcomes. Secondary objectives included evaluation of anti-leukemic efficacy of compound of Formula I by molecular outcomes, hematological outcomes in CP CML patients, and by cytogenetic outcomes in AP CML and BP CML; time to first hematologic response; duration of response; progression-free survival (PFS) and overall survival (OS), population PK of the compound of Formula I and safety.
The selection criteria for subjects (Both inclusion and exclusion) were the same as those set forth above study, except for the following: Subjects had to be previously treated with ≥3 prior TKIs including the 3rd generation TKI, ponatinib; subjects with Ph+ ALL were not included in this study; subjects with presence of T3151 mutations were excluded in the study. Limited to no response on a TKI therapy is reported in CML patients post-ponatinib treatment (Leuk Lymphoma 2018 June; 59 (6): 1312-1322).
Patients were followed for survival by telephone survey.
The Compound of Formula I with 174 mg as capsules was administered orally once daily continuously in 4-week cycles. Patients self-administered the compound of Formula I on an outpatient basis at approximately the same time each morning after overnight fasting or fasting ˜2 hours before and after dosing.
Bone marrow aspirate samples were sent for review of cytogenetics by conventional Giemsa staining method (karyotyping). Fluorescence in situ hybridization (FISH) was performed on bone marrow aspirates only in cases of subjects who had achieved complete cytogenetic response (confirmed by karyotyping) with the studied drug and who had minimum residual disease. FISH was also used if a sufficient sample was not available for conducting the Giemsa staining method (karyotyping).
Standard cytogenetic methods were used to determine the presence of the Ph+ and its presence (percentage) in the bone marrow. At least 20 cells in metaphase were evaluated for karyotyping. Bone marrow cytogenetics was scheduled to be performed within 7 days of the scheduled date irrespective of missed doses or disease or dose-associated AEs.
Molecular response monitoring (MMR) using PCR for BCR-ABL copy number was performed on the collected blood samples and was assessed using the international scale (IS).
The hematologic response was evaluated by peripheral blood utilizing local laboratory results.

[3] = system: cell lines expressing Ph+ wild-type and mutant forms of BCR-ABL1; assay: Growth inhibition of cell lines; type: cell-based
[4] = Pharmacokinetics in CML patients by dose cohort; conditions: for Cmin: cycle 2, CML patients, oral; for AUC(0-t) / Cmax: human, plasma, po
Experimental: A±5 minutes window permitted till 4 hours PK sample collection. A±10 minutes window permitted for subsequent PK sample collection. Days 3, 8, 15, and 22 of Cycle 1:30 (±10) minutes Predose only. […] A #5 minutes window permitted till 4 hours PK sample collection. A #10 minutes window permitted for subsequent PK sample collection. Days 8, 15, and 22 of Cycle 2:30 (±10) minutes Predose only. Cycle 3 onwards: Predose samples on Day 1.
Pharmacokinetic analysis was performed using non-compartmental analysis. The actual elapsed time from dose was used in the final PK parameter calculations. Plasma concentrations and PK parameters for the compound of Formula I were listed and summarized by dose cohort using descriptive statistics (n, mean, standard deviation, minimum, median, and maximum). Geometric mean and geometric coefficient of variation were calculated for PK parameters. Additionally, mean concentration profiles by dose cohort and cycle were illustrated. Dose proportionality of Cmax and AUC(0-24) was assessed graphically for Cycle 1 and Cycle 2. Dose proportionality was statistically evaluated using the power model approach, whenever the number of patients was at least 3 for a given cohort. Time to steady-state (Ctrough) was evaluated graphically. Differences among dose levels in CL/F and V/F, and dose-normalized Cmax and AUC(0-24) were explored using an analysis of variance.
The PK parameters for the study were summarized by treatment using descriptive (N, n, mean, standard deviation [SD], coefficient of variation [CV] % minimum, median, maximum, geometric mean and CV %) statistics, except for Tmax. For Tmax, the number of subjects, minimum, median, and maximum are reported.

Cc1ccc(C(=O)NNC(=O)c2c(C)cccc2Cl)cc1C#Cc1cnc2ccccc2c1 [compound of Formula I, N′-(2-chloro-6-methylbenzoyl)-4-methyl-3-[2-(3-quinolyl)ethynyl]-benzohydrazide]
withdrawal criteria based on QTcF prolongation or safety laboratory tests [1]: No subject reached the subject withdrawal criteria
safety and tolerability ([1]; healthy subjects): safe and well tolerated
Best Cytogenetic Response: Complete Cytogenetic Response ([2]; 174 mg (N = 7)): 1 (14.3%)
Best Cytogenetic Response: Major Cytogenetic Response ([2]; 174 mg (N = 7)): 2 (28.6%)
Best Cytogenetic Response: Minimal Cytogenetic Response ([2]; 174 mg (N = 7)): 0
Best Cytogenetic Response: Minor Cytogenetic Response ([2]; 174 mg (N = 7)): 0
Best Cytogenetic Response: No Response ([2]; 174 mg (N = 7)): 2 (28.6%)
Best Cytogenetic Response: Partial Cytogenetic Response ([2]; 174 mg (N = 7)): 1 (14.3%)
Best Hematologic Response: Complete Hematologic Response ([2]; 174 mg (N = 7)): 6 (85.7%)
Best Hematologic Response: Major Hematologic Response ([2]; 174 mg (N = 7)): 6 (85.7%)
Best Hematologic Response: No Evidence of Leukemia ([2]; 174 mg (N = 7)): 0
Best Hematologic Response: No Response ([2]; 174 mg (N = 7)): 1 (14.3%)
Best Molecular Response: Complete Response ([2]; 174 mg (N = 7)): 0
Best Molecular Response: Major Response ([2]; 174 mg (N = 7)): 1 (14.3%)
Best Molecular Response: No Response ([2]; 174 mg (N = 7)): 4 (57.1%)
Major molecular response (MMR) as best response ([2]; 1 of the 7 enrolled subjects, 174 mg): 14.3%
Complete hematological response (CHR) as best response ([2]; 2 of the 2 AP-CML enrolled subjects): 100%
Major cytogenetic response (MCyR) as best response ([2]; 2 of the 7 enrolled subjects, 174 mg): 28.6%
major hematological response (MaHR) as best response ([2]; 6 of the 7 enrolled subjects, 174 mg): 85.7%
Major molecular response (MMR) as best response ([2]; 6 of the 13 enrolled CP-CML subjects): 46.2%
achieved MaHR in the study ([2]; 7 enrolled subjects, 174 mg): 5 subjects
came into the study in MaHR and maintained it ([2]; 7 enrolled subjects, 174 mg): 1 subject
Major cytogenetic response (MCyR) as best response ([2]; 11 CP-CML enrolled subjects): 84.6%
Complete hematological response (CHR) as best response ([2]; 13 of the 15 CP-CML enrolled subjects): 86.7%
achieved CHR in study ([2]; CP-CML, of 13): 9 subjects
came into the study in CHR and maintained it ([2]; CP-CML, of 13): 4 subjects
developed CCyR ([2]; CP-CML, of the 13 subjects): 61.5%
effect on cell lines [3]: growth inhibition
Cmin ([4]; dose cohort 12): 61.8
Cmin ([4]; dose cohort 24): 114
Cmin ([4]; dose cohort 48): 261
Cmin ([4]; dose cohort 66): 102.7
Cmin ([4]; dose cohort 90): 363
Cmin ([4]; dose cohort 126): 831
Cmin ([4]; dose cohort 174): 254
Cmin ([4]; dose cohort 204): 427
increase of mean exposures (AUC) with dose ([4]; doses above 174 mg): sub-proportional increase or plateauing of exposures
AUC(0-t) ([4]; 12 mg): 3330 ng·h/mL
Cmax ([4]; 12 mg): 685 ng/mL
AUC(0-t) ([4]; 24 mg): 5070 ng·h/mL
Cmax ([4]; 24 mg): 589 ng/mL
AUC(0-t) ([4]; 48 mg): 13700 ng·h/mL
Cmax ([4]; 48 mg): 1090 ng/mL
AUC(0-t) ([4]; 66 mg): 7780 ng·h/mL
Cmax ([4]; 66 mg): 830 ng/mL
AUC(0-t) ([4]; 90 mg): 22800 ng·h/mL
Cmax ([4]; 90 mg): 2860 ng/mL
AUC(0-t) ([4]; 126 mg): 50300 ng·h/mL
Cmax ([4]; 126 mg): 4100 ng/mL
AUC(0-t) ([4]; 174 mg): 35700 ng·h/mL
Cmax ([4]; 174 mg): 4210 ng/mL
steady state reached (trough concentrations) ([4]; majority of the subjects): ≤ 3 days
accumulation at steady state ([4]; once-daily dosing): no low or minimal accumulation
